Reference: ChEMBL document CHEMBL1201862, “PubChem BioAssay data set” (2004)
Active and inactive are the calls of the source.

Legend:
[1] = molecular target: T1, Mannose-6-phosphate isomerase (Homo sapiens, UniProt P34949); experiment: MPI inhibition at elevated mannose 6-phosphate – biochemical, fluorescence intensity, high mannose 6-phosphate, primary screen (AID 1220)
T1 sequence (P34949 whole entry): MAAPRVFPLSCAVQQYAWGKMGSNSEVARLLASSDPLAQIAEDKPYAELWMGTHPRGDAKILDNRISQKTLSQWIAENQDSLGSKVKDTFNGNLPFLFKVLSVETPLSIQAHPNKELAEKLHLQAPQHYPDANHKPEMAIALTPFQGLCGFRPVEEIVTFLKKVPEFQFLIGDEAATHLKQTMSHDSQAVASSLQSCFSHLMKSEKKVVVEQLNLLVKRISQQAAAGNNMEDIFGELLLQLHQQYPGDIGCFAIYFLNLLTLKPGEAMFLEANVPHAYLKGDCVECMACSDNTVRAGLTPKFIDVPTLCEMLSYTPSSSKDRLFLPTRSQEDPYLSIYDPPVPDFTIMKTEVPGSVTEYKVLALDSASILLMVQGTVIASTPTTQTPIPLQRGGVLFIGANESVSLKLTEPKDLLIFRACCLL

[2] = reduced cellular PGC1a acetyl-lysine signal – cell-based, cherry-picked samples, dose response (AID 720514); format: functional;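 further: potency may reflect raised or lowered acetylation signal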
[3] = test system: BJ; experiment: cells; format: functional, cell-based; conditions: Homo sapiens
[4] = test system: BJ; experiment: BJ-TERT fibroblast viability loss – cell-based, RAS-independent, luminescence, dose response (AID 1933); format: functional; conditions: Homo sapiens
[5] = DRD fibroblast viability loss – cell-based, non-viral oncogenic, luminescence, dose response (AID 1934); format: functional; conditions: Homo sapiens
[6] = test system: BJ; experiment: BJ-TERT-LT-ST fibroblast viability loss – cell-based, RAS-independent, luminescence, dose response (AID 1935); format: functional; conditions: Homo sapiens;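 further: BJ fibroblasts immortalized with TERT plus LT and ST oncogenes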
[7] = HEK-293T cell viability reduction – luminescence, B-cell screen hits, cytotoxicity control for BCR NF-kB inhibitor project, dose response (AID 489021); format: functional, cell-based;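 further: HEK-293T cells carrying an NF-kB luciferase reporter; cells exposed to compound for about 14 hours before viability readout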
[8] = molecular target: Beta-galactosidase (Escherichia coli, UniProt Q8VNN2); experiment: Dose response counterscreen for EBI2 assay utilizing the enzyme, b-galactosidase.; format: functional
[9] = molecular target: T2, Corticotropin-releasing factor receptor 2/Corticotropin-releasing factor-binding protein (Homo sapiens, UniProt P24387+Q13324); experiment: Dose Response confirmation of uHTS hits for small molecule antagonists of the CRF-binding protein and CRF-R2 receptor complex.; format: functional; conditions: read-out: IC50_Mean
T2 sequence (Q13324 whole entry): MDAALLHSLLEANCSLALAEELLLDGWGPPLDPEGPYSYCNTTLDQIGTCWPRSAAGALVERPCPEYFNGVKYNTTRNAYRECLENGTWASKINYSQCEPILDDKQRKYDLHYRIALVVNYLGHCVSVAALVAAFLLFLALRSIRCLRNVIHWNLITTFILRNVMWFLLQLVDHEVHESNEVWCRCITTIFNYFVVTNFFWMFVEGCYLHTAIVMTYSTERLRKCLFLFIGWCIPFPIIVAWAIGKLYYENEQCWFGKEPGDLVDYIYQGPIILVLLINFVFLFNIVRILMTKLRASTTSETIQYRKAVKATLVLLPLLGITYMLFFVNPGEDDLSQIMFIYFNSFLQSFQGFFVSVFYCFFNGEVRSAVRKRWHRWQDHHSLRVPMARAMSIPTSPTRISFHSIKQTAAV
T2 sequence (P24387 whole entry): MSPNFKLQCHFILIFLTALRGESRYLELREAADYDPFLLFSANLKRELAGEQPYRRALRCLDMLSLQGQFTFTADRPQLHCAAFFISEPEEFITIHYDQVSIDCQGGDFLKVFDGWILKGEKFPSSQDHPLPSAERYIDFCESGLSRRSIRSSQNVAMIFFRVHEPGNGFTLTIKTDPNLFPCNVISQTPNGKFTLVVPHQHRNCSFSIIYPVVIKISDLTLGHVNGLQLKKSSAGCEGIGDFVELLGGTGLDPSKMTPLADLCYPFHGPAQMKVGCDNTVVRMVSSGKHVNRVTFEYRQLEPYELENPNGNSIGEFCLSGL

[10] = molecular target: T2, Corticotropin-releasing factor receptor 2/Corticotropin-releasing factor-binding protein; experiment: activators of CRF receptor 2 with binding protein – uHTS hits, confirmation (AID 602473); format: functional; conditions: read-out: EC50_Mean
[11] = molecular target: Peroxisome proliferator-activated receptor gamma/Nuclear receptor coactivator 1 (Homo sapiens, UniProt P37231); format: functional;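 further: agonist potency as compounds enhance coactivator SRC-1 recruitment to PPARgamma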
[12] = molecular target: Peroxisome proliferator-activated receptor gamma/Nuclear receptor coactivator 3 (Homo sapiens, UniProt P37231); format: functional;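 further: agonist potency for raising coactivator recruitment to the receptor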
[13] = molecular target: Peroxisome proliferator-activated receptor gamma/Nuclear receptor coactivator 2 (Homo sapiens, UniProt P37231); format: functional;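 further: agonist potency for raising coactivator recruitment to the receptor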
[14] = luciferase reporter signal suppression in cells – H4 neuroglioma cells, luminescence, dose response (AID 1990); format: functional, cell-based
[15] = alpha-synuclein stem-loop luciferase translation blockers – H4 neuroglioma cells, luminescence, confirmation (AID 1988); format: functional, cell-based
[16] = Luminescence Cell-Based Dose Response HTS to Identify Inhibitors of 5'UTR Stem-Loop Driven Prion Protein mRNA Translation in H4 Neuroglioblastoma Cells. [Related pubchem assays: 1827 (Project Summary), 1813 (Primary HTS)]; format: functional
[17] = HEK-293T viability loss after treatment – luminescence, T-cell screen hits, cytotoxicity control for TCR NF-kB inhibitor project, dose response (AID 489026); format: functional, cell-based;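 further: cells exposed to compound about 14 hours before the viability readout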
[18] = molecular target: T3, Caspase-6 (Homo sapiens, UniProt P55212); experiment: inhibition of CASP6 peptide cleavage – biochemical, VEID-R110 fluorescence, cherry-pick, dose response (AID 720632)
T3 sequence (P55212 whole entry): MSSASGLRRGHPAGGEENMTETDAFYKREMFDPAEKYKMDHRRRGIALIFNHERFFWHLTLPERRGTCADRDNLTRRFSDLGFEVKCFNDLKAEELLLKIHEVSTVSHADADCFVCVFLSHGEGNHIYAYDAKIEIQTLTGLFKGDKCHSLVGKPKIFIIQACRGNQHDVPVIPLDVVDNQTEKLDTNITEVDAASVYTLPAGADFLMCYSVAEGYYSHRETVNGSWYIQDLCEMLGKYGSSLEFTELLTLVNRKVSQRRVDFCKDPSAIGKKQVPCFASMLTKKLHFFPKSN

[19] = molecular target: Cytochrome P450 2C9 (Homo sapiens, UniProt P11712)
[20] = molecular target: Cytochrome P450 2C19 (Homo sapiens, UniProt P33261); experiment: Cytochrome panel assay with activity outcomes. Panel member name: p450-cyp2c19 Compounds with AC50 equal or less than 10 uM are considered active; format: functional; conditions: read-out: AC50
[21] = molecular target: Eukaryotic translation initiation factor 4E (Mus musculus, UniProt P63073); experiment: blockers of eIF4G binding by eIF4E – biochemical, TR-FRET, dose response (AID 855); format: functional;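 further: potency for disrupting eIF4E binding to eIF4GI seen as loss of FRET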
[22] = molecular target: SWI/SNF-related matrix-associated actin-dependent regulator of chromatin subfamily A member 2 (Homo sapiens, UniProt P51531); experiment: Luminescence-based cell-based high throughput dose response assay to identify activators of the function of SWI/SNF related, matrix associated, actin dependent regulator of chromatin, subfamily a, member 2 (SMARCA2, BRM).; format: functional
[23] = molecular target: T4, Heat shock factor protein 1 (Mus musculus, UniProt P38532); experiment: enhancement of HSF1-driven luciferase signal – cell-based, NIH3T3, luminescence, dose retest, confirmation (AID 435004); format: functional;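 further: stress induced by proteasome inhibitor MG132 added 30 min after compound; luciferase reporter driven by HSF1 response element in NIH3T3 cells; actives raise luminescence as potentiators of the MG132 stress response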
T4 sequence (P38532 whole entry): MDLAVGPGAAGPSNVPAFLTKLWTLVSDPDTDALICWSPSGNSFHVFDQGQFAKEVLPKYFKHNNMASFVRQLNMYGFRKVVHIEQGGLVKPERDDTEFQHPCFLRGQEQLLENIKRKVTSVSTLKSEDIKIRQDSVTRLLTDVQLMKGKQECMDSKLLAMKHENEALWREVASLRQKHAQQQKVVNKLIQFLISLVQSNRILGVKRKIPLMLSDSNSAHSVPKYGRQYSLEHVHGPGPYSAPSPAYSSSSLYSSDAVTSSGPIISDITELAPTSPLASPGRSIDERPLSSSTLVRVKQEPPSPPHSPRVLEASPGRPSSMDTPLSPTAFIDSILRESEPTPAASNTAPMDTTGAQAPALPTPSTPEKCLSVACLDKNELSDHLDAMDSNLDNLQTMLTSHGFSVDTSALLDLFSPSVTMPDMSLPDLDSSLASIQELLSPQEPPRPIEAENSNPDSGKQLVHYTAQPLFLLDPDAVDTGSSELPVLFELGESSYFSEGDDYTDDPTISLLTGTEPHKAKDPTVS

[24] = Counterscreen for activators of the function of SWI/SNF related, matrix associated, actin dependent regulator of chromatin, subfamily a, member 2 (SMARCA2, BRM): Luminescence-based cell-based high throughput dose response assay to identify non-selective compounds using the VP16 reporter assay.; format: functional
[25] = molecular target: Luciferin 4-monooxygenase (Photinus pyralis, UniProt P08659); experiment: inhibition of purified Photinus pyralis luciferase – biochemical, luminescence, dose response (AID 1891)
[26] = Luminescence Cell-Based Dose Confirmation HTS to Identify Inhibitors of Platelet Dense Granule Release. [Related pubchem assays: 1663 (Primary HTS), 1678 (Summary of Project)]; format: functional

Sequence of Peroxisome proliferator-activated receptor gamma/Nuclear receptor coactivator 3 (P37231 whole entry): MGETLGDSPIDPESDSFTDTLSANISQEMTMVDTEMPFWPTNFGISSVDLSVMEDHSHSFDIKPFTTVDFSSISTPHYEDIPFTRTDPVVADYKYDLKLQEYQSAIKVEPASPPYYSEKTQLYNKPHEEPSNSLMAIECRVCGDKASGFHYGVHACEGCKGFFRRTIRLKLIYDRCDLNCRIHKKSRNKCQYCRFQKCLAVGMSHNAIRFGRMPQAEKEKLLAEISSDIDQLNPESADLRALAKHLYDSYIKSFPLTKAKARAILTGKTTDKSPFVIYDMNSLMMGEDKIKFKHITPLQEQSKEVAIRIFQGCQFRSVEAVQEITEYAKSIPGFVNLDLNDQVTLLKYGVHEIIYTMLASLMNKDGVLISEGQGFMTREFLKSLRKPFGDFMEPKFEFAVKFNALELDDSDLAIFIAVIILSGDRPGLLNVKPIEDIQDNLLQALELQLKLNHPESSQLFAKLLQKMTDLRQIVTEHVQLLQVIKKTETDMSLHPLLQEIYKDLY
Sequence of Peroxisome proliferator-activated receptor gamma/Nuclear receptor coactivator 3 (Q9Y6Q9 whole entry, further chain): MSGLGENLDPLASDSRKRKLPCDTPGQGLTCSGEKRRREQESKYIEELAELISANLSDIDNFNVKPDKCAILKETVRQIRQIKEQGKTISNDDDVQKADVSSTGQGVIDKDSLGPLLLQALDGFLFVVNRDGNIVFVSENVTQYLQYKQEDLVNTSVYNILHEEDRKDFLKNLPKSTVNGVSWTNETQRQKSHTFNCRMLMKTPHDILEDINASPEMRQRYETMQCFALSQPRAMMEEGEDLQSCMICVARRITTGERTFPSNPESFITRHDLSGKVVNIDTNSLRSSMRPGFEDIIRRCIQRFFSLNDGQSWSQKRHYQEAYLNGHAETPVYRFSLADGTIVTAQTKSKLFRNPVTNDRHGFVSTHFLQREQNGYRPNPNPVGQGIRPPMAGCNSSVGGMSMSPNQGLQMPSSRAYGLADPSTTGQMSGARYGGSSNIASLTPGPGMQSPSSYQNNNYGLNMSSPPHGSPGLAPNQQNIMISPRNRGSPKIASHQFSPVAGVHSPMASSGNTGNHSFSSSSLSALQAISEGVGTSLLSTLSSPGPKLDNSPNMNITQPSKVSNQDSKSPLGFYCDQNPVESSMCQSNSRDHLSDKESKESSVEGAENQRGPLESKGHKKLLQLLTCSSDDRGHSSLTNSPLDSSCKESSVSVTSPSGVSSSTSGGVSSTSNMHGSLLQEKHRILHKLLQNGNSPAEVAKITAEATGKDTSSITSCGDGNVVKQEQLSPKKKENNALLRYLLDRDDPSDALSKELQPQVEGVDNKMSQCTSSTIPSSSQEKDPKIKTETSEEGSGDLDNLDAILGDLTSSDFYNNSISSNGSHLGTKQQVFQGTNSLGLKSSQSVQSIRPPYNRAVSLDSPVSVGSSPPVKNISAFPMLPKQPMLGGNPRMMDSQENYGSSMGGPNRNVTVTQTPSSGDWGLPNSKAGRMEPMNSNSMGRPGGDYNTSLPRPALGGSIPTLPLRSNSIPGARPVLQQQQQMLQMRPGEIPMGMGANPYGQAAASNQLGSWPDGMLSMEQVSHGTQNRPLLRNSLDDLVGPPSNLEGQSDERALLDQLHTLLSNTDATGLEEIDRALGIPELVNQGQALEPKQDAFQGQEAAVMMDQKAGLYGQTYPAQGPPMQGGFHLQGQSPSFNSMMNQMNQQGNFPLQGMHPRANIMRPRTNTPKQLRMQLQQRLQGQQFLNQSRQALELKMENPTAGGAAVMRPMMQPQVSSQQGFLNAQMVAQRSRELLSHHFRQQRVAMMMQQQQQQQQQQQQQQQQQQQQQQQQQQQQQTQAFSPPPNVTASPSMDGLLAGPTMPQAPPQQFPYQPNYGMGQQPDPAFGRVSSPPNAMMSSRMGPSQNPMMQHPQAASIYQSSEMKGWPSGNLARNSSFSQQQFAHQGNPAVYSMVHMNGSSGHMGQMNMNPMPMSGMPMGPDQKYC
Sequence of Peroxisome proliferator-activated receptor gamma/Nuclear receptor coactivator 2 (P37231 whole entry): as the sequence (P37231 whole entry) above
Sequence of Peroxisome proliferator-activated receptor gamma/Nuclear receptor coactivator 2 (Q15596 whole entry, further chain): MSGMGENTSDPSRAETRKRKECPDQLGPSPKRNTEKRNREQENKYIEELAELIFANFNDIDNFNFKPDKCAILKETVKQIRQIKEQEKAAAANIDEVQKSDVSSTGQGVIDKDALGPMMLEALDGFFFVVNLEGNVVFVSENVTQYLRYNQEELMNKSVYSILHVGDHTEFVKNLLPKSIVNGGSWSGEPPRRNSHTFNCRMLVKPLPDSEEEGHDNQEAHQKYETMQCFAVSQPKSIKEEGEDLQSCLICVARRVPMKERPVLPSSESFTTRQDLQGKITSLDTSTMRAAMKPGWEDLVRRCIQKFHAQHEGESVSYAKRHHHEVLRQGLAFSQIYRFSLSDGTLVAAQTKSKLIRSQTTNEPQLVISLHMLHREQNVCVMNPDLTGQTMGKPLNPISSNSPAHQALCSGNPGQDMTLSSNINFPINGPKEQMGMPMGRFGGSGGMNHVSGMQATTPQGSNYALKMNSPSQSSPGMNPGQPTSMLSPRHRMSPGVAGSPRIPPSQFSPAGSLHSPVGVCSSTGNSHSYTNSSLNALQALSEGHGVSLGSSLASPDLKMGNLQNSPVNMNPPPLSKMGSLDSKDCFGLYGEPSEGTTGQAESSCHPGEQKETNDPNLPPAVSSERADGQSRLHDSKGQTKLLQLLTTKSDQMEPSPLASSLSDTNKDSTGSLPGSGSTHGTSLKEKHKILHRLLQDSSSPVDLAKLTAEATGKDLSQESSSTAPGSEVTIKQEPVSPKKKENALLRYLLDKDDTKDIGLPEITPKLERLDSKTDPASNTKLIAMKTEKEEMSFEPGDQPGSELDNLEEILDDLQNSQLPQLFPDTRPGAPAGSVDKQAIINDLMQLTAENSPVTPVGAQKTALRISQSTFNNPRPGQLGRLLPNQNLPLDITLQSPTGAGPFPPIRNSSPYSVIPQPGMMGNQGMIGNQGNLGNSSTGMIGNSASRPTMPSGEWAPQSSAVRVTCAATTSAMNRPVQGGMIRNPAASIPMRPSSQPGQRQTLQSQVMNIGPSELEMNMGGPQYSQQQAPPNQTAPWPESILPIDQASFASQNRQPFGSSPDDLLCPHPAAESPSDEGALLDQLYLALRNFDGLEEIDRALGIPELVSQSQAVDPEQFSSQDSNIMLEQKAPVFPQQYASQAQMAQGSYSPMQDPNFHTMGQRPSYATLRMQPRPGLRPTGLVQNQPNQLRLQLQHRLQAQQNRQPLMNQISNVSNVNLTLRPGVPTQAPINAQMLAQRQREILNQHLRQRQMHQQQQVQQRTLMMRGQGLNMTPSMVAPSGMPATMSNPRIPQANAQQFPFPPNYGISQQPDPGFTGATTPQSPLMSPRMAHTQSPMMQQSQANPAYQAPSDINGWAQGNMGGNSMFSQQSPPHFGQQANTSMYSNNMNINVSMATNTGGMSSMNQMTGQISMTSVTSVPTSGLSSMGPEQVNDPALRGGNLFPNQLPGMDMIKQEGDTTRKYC
Sequence of Beta-galactosidase (Q8VNN2 whole entry): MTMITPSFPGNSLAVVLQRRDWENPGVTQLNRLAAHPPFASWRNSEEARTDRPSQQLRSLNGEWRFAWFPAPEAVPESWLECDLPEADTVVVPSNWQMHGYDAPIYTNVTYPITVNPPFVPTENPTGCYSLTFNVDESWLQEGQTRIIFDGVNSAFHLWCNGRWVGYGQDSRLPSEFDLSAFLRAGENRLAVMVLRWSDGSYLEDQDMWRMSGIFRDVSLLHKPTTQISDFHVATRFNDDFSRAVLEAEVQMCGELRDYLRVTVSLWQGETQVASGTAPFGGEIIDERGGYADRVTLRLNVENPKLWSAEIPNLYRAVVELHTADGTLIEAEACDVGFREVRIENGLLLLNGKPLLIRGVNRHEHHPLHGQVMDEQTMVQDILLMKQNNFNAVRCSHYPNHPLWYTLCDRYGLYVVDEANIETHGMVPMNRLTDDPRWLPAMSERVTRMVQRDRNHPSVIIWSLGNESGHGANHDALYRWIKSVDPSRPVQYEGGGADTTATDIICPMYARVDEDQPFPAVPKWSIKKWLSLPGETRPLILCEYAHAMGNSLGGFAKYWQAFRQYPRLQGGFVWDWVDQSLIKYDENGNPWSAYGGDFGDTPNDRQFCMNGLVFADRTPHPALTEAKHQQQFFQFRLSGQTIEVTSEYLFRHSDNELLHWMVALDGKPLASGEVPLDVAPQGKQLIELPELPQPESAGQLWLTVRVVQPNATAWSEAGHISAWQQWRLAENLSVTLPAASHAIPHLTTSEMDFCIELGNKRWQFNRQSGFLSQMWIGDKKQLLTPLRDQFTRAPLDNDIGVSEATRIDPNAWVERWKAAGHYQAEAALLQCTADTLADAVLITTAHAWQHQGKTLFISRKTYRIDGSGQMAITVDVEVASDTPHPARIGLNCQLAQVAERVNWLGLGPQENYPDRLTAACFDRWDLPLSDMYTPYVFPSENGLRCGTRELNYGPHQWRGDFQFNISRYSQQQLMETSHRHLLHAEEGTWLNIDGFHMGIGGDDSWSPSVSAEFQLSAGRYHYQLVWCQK

CN(CC(=O)Nc1ccc(N2CCOCC2)cc1)Cc1c(O)ccc2ccccc12
IC50 [1]: > 50 µM (not active)

C[C@@H]1CN([C@@H](C)CO)C(=O)c2cc(NC(=O)CCCN(C)C)ccc2O[C@@H](C)CCCCO[C@@H]1CN(C)Cc1ccc(C(F)(F)F)cc1
AC50 [2]: 37.9 µM (active)

O=C(c1cccc([N+](=O)[O-])c1)c1ccccn1
EC50 [3]: > 150 µM (not active) | EC50 [4]: > 150 µM (not active) | EC50 [5]: > 150 µM (not active) | EC50 [6]: > 150 µM (not active)

Cc1cc(OCC(=O)Nc2ccc(CCO)cc2)c2c(C)c(C)c(=O)oc2c1
IC50 [7]: > 80 µM (inactive)

CCC(C)c1ccc(NC(=S)Nc2ccc(OC)cc2)cc1 (stereo unspecified)
IC50 [8]: > 80 µM (inactive) | IC50 [9]: > 47.1 µM (inactive) | EC50 [10]: > 53 µM (inactive)

O=C(C[C@H]1CC[C@@H](NC(=O)c2ccccc2)[C@H](CO)O1)Nc1ccc(-c2ccccc2)cc1
AC50 [2]: 4.76 µM (active)

Clc1cccc2sc(N3CCN(c4ccccc4)CC3)nc12
EC50 [11]: > 79.4 µM (not active) | EC50 [12]: > 79.4 µM (not active) | EC50 [13]: > 79.4 µM (not active)

COc1ccc(-n2nnnc2-c2cccc(OC)c2)cc1
EC50 [3]: 109 µM (active) | EC50 [4]: 8.48 µM (active) | EC50 [14]: 4.68 µM (inconclusive) | EC50 [5]: 2.04 µM (active) | EC50 [15]: 0.824 µM (inconclusive) | EC50 [16]: 11.6 µM (active) | EC50 [6]: 2.71 µM (active) | IC50 [17]: > 80 µM (inactive)

CN(C)/C=C1\Oc2ccc3ccccc3c2C1=O
IC50 [1]: > 50 µM (not active)

Cc1ccc2cc(N)ccc2n1
IC50 [1]: > 50 µM (not active) | AC50 [18]: 14.2 µM (active)

COc1ccc(OC)c2c1s/c(=N\C(=O)C(C)(C)C)n2C
EC50 [11]: > 79.4 µM (not active) | EC50 [12]: > 79.4 µM (not active) | EC50 [13]: > 79.4 µM (not active)

CCOc1cc(/C=N\Nc2nc(Nc3ccccc3)nc(N3CCOCC3)n2)ccc1OC(=O)c1ccco1
IC50 [7]: > 80 µM (inactive)

Cc1ccc(/C=C2\SC(=S)N(CCC(=O)NNC(=O)c3ccncc3)C2=O)cc1
IC50 [7]: > 80 µM (inactive)

CC(C)CC(=O)N1CCC(N2CCN(c3ccccc3)CC2)CC1
AC50 [19]: 14.1 µM (inconclusive) | AC50 [20]: 15.8 µM (inconclusive) | IC50 [21]: > 64 µM (inactive)

Fc1cccc(-c2ccc([C@@H]3[C@@H]4CN(Cc5nccs5)C[C@H]3N4)cc2)c1
AC50 [2]: 17.6 µM (active)

Cc1ccc(C(=O)CNc2ccc(Cl)cc2)cc1
EC50 [22]: > 91.2 µM (inactive) | EC50 [23]: > 260 µM (inactive) | IC50 [8]: 130 µM (inactive) | EC50 [24]: > 91.2 µM (inactive)

CC1(C)Cc2c(sc3nc(NCCN4CCOCC4)n4ncnc4c23)CO1
EC50 [25]: > 112 µM (not active) | EC50 [26]: 10.8 µM (active) | IC50 [21]: > 64 µM (inactive)

Cc1cc(OCC(=O)NC2CC2)c2c(C)c(C)c(=O)oc2c1
IC50 [7]: > 80 µM (inactive)

O=C(Cc1sc(-c2ccccc2Cl)nc1-c1ccccc1)Nc1ccccc1
EC50 [11]: 10 µM (not active) | EC50 [12]: 11.3 µM (not active) | EC50 [13]: 6.82 µM (active)

C[C@H](CO)N1C[C@H](C)[C@H](CN(C)Cc2ccccc2)Oc2cc(Br)ccc2S1(=O)=O
AC50 [2]: 25.8 µM (active)
